In PubChem BioAssay AID248 (DTP/NCI, 2004):
Values joined by “and” are separate entries in the source; they are usually repeats but may differ in a detail not shown here. Equal values may be shown once. Inconclusive results and toxic doses are left out. Rule as the data show it: active = T/C of 150% or more; inactive = T/C below 125%.

Tested on: L1210 leukemia ip in BDF1 mice, survival T/C
Test: NCI In Vivo Anticancer Drug Screen. Data for tumor model L1210 Leukemia (intraperitoneal) in B6D2F1 (BDF1) mice
Details: endpoint: mean survival time, higher = longer survival
Outline: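 Value reflects the ratio of survival in compound-treated mice to survival in vehicle-treated controls, with both groups carrying the same transplanted tumor.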

[1] = dose: 100.0 mg/kg/injection, schedule: Q01DX009 (ip), vehicle: saline with Tween-80
[2] = dose: 100.0 mg/kg/injection, schedule: Q04DX003 (ip), vehicle: saline with Tween-80
[3] = dose: 200.0 mg/kg/injection, schedule: Q01DX009 (ip), vehicle: saline with Tween-80
[4] = dose: 200.0 mg/kg/injection, schedule: Q04DX003 (ip), vehicle: saline with Tween-80
[5] = dose: 400.0 mg/kg/injection, schedule: Q01DX009 (ip), vehicle: saline with Tween-80
[6] = dose: 400.0 mg/kg/injection, schedule: Q04DX003 (ip), vehicle: saline with Tween-80
[7] = dose: 100.0 mg/kg/injection, schedule: Q01DX001 (ip), vehicle: saline
[8] = dose: 200.0 mg/kg/injection, schedule: Q01DX001 (ip), vehicle: saline
[9] = dose: 400.0 mg/kg/injection, schedule: Q01DX001 (ip), vehicle: saline
[10] = dose: 100.0 mg/kg/injection, schedule: Q04DX003 (ip), vehicle: Klucel (hydroxypropylcellulose) (HPC)
[11] = dose: 400.0 mg/kg/injection, schedule: Q04DX003 (ip), vehicle: Klucel (hydroxypropylcellulose) (HPC)
[12] = dose: 100.0 mg/kg/injection, schedule: Q04DX003 (ip), vehicle: saline
[13] = dose: 100.0 mg/kg/injection, schedule: Q01DX009 (ip), vehicle: Klucel (hydroxypropylcellulose) (HPC)
[14] = dose: 200.0 mg/kg/injection, schedule: Q01DX009 (ip), vehicle: Klucel (hydroxypropylcellulose) (HPC)
[15] = dose: 400.0 mg/kg/injection, schedule: Q01DX009 (ip), vehicle: Klucel (hydroxypropylcellulose) (HPC)
[16] = dose: 50.0 mg/kg/injection, schedule: Q01DX009 (ip), vehicle: saline with Tween-80

Measured: T/C

CN(C)CCCn1c2c(c3ccccc31)CCCCCC2
inactive: dose: 6.25 mg/kg/injection, schedule: Q01DX009 (ip), vehicle: saline 96 % of control | dose: 12.5 mg/kg/injection, schedule: Q01DX009 (ip), vehicle: saline 93 % of control | dose: 25.0 mg/kg/injection, schedule: Q01DX009 (ip), vehicle: saline 98 % of control | dose: 50.0 mg/kg/injection, schedule: Q01DX009 (ip), vehicle: saline 102 % of control

Nc1c(C(=O)O)cccc1C(=O)O
inactive: [1] 98 % of control | [2] 110 % of control | [3] 107 % of control | [4] 108 % of control | [5] 107 % of control | [6] 96 % of control

CC1OC(c2ccccc2)OC2COC(c3ccccc3)OC12 (stereo unspecified)
inactive: [2] 102 % of control | [4] 96 % of control | [6] 96 % of control

O=C(CCCl)Nc1cccc2c1C(=O)c1c(c(O)c3ccccc3c1O)C2=O
inactive: [2] 90 % of control | [4] 92 % of control | [6] 91 % of control

CC(=O)NC1CC(CO)C(O)C1O (stereo unspecified)
inactive: [7] 107 % of control | [8] 90 % of control | [9] 101 % of control

S=c1ncn(C2CCCCC2)c(=S)[nH]1
inactive: [10] 95 % of control | [11] 102 % of control

CC(C)(C)NNC(C)(C)C
inactive: dose: 9.38 mg/kg/injection, schedule: Q01DX001 (ip), vehicle: other 102 % of control | dose: 18.75 mg/kg/injection, schedule: Q01DX001 (ip), vehicle: other 96 % of control | dose: 37.5 mg/kg/injection, schedule: Q01DX001 (ip), vehicle: other 96 % of control

Oc1c(CN2CCCC2)cc(Nc2nccc(/C=C/c3ccc(Cl)cc3)n2)cc1CN1CCCC1
inactive: dose: 25.0 mg/kg/injection, schedule: Q04DX003 (ip), vehicle: saline 96 % of control | dose: 50.0 mg/kg/injection, schedule: Q01DX001 (ip), vehicle: saline 96 % of control | dose: 50.0 mg/kg/injection, schedule: Q04DX003 (ip), vehicle: saline 96 % of control | [7] 93 % of control | [12] 90 % of control

O=C(O)C1CCCCC1C(=O)N(Cc1ccccc1)Cc1ccccc1 (stereo unspecified)
inactive: [13] 98 % of control | [14] 102 % of control | [15] 90 % of control

CN(C)CCC(=O)c1ccc2cc(Br)c3ccccc3c2c1
inactive: dose: 13.3 mg/kg/injection, schedule: Q01DX Z (ip), vehicle: methylcellulose (MC) 91 % of control | dose: 30.0 mg/kg/injection, schedule: Q01DX Z (ip), vehicle: methylcellulose (MC) 95 % of control

COc1ccc([P+](Cc2ccccc2)(c2ccccc2)c2ccc3ccccc3c2)cc1 (stereo unspecified)
inactive: dose: 75.0 mg/kg/injection, schedule: Q01DX001 (ip), vehicle: carboxymethylcellulose (CMC) 91 % of control | dose: 150.0 mg/kg/injection, schedule: Q01DX001 (ip), vehicle: carboxymethylcellulose (CMC) 96 % of control

CC(=O)OCCn1c(C)nc2cc(Cl)c(Cl)cc21
inactive: dose: 100.0 mg/kg/injection, schedule: Q04DX003 (ip), vehicle: acetone 94 % of control | dose: 200.0 mg/kg/injection, schedule: Q04DX003 (ip), vehicle: acetone 98 % of control | dose: 400.0 mg/kg/injection, schedule: Q04DX003 (ip), vehicle: acetone 93 % of control

O=C1NN=C(c2ccccc2)C1Cc1ccccc1 (stereo unspecified)
inactive: [7] 94 % of control | [8] 94 % of control | [9] 105 % of control

COC(=O)C1(C(=O)OC)C(c2ccccc2)C1(C(=O)OC)C(=O)OC
inactive: dose: 12.5 mg/kg/injection, schedule: Q01DX009 (ip), vehicle: saline with Tween-80 94 % of control | dose: 25.0 mg/kg/injection, schedule: Q01DX009 (ip), vehicle: saline with Tween-80 98 % of control | [16] 94 % of control | [1] 91 % of control

CC12CCC3c4ccc(Oc5ccccc5[N+](=O)[O-])cc4CCC3C1CCC2=O (stereo unspecified)
inactive: dose: 100.0 mg/kg/injection, schedule: Q01DX001 (sc), vehicle: steriod suspending solution 100 % of control | dose: 200.0 mg/kg/injection, schedule: Q01DX001 (sc), vehicle: steriod suspending solution 103 % of control | dose: 400.0 mg/kg/injection, schedule: Q01DX001 (sc), vehicle: steriod suspending solution 103 % of control

Cc1ccc([N+](=O)[O-])cc1/C=C/C(=O)O
inactive: [12] 106 % of control | dose: 200.0 mg/kg/injection, schedule: Q04DX003 (ip), vehicle: saline 93 % of control | dose: 400.0 mg/kg/injection, schedule: Q04DX003 (ip), vehicle: saline 104 % of control

CCCCNc1c(C(=O)OCC)cnc2c1cnn2CC
inactive: dose: 12.0 mg/kg/injection, schedule: Q01DX009 (ip), vehicle: Klucel (hydroxypropylcellulose) (HPC) 100 % of control | dose: 25.0 mg/kg/injection, schedule: Q01DX009 (ip), vehicle: Klucel (hydroxypropylcellulose) (HPC) 96 % of control | dose: 50.0 mg/kg/injection, schedule: Q01DX009 (ip), vehicle: Klucel (hydroxypropylcellulose) (HPC) 106 % of control | dose: 75.0 mg/kg/injection, schedule: Q01DX009 (ip), vehicle: Klucel (hydroxypropylcellulose) (HPC) 96 % of control

Nc1ccc(Cc2[nH]c(=O)[nH]c(=O)c2Br)cc1[N+](=O)[O-]
inactive: dose: 25.0 mg/kg/injection, schedule: Q01DX001 (ip), vehicle: Klucel (hydroxypropylcellulose) (HPC) 103 % of control | dose: 50.0 mg/kg/injection, schedule: Q01DX001 (ip), vehicle: Klucel (hydroxypropylcellulose) (HPC) 95 % of control | dose: 100.0 mg/kg/injection, schedule: Q01DX001 (ip), vehicle: Klucel (hydroxypropylcellulose) (HPC) 93 % of control

CC1=CC2C(C(C)C)CC1C1C(=O)OC(=O)C21 (stereo unspecified)
inactive: dose: 100.0 mg/kg/injection, schedule: Q04DX002 (ip), vehicle: Klucel (hydroxypropylcellulose) (HPC) 102 % of control | dose: 200.0 mg/kg/injection, schedule: Q04DX002 (ip), vehicle: Klucel (hydroxypropylcellulose) (HPC) 100 % of control

CN1CCN=C1c1ccc(NC(=O)c2ccc(C(=O)Nc3ccc(C4=NCCN4C)cc3)c([N+](=O)[O-])c2)cc1
inactive: dose: 1.5 mg/kg/injection, schedule: Q01DX Z (ip), vehicle: carboxymethylcellulose (CMC) 96 % of control | dose: 3.0 mg/kg/injection, schedule: Q01DX Z (ip), vehicle: carboxymethylcellulose (CMC) 101 % of control | dose: 6.0 mg/kg/injection, schedule: Q01DX Z (ip), vehicle: carboxymethylcellulose (CMC) 90 % of control

Cc1c(Cl)cccc1NC(=O)NCCc1ccccc1
inactive: [1] 94 % of control and 101 % of control | dose: 100.0 mg/kg/injection, schedule: Q04DX002 (ip), vehicle: saline with Tween-80 100 % of control and 103 % of control | [2] 100 % of control | [3] 101 % of control and 104 % of control | dose: 200.0 mg/kg/injection, schedule: Q04DX002 (ip), vehicle: saline with Tween-80 93 % of control and 97 % of control | [4] 101 % of control | [5] 100 % of control and 101 % of control | dose: 400.0 mg/kg/injection, schedule: Q04DX002 (ip), vehicle: saline with Tween-80 96 % of control and 97 % of control | [6] 101 % of control

O=c1oc2cccc(O)c2c2c1CCCC2
inactive: [13] 95 % of control | [10] 97 % of control | [14] 90 % of control | dose: 200.0 mg/kg/injection, schedule: Q04DX003 (ip), vehicle: Klucel (hydroxypropylcellulose) (HPC) 95 % of control | [15] 90 % of control | [11] 93 % of control

CCOc1ccc(NC(=O)OC/C=C/c2ccccc2)cc1
inactive: [16] 96 % of control | [1] 93 % of control | [3] 90 % of control

C1=CC2c3ccccc3C1c1ccccc12
inactive: dose: 100.0 mg/kg/injection, schedule: Q01DX009 (sc), vehicle: olive oil, sesame oil, peanut oil 101 % of control | dose: 100.0 mg/kg/injection, schedule: Q04DX003 (sc), vehicle: olive oil, sesame oil, peanut oil 102 % of control | dose: 200.0 mg/kg/injection, schedule: Q01DX009 (sc), vehicle: olive oil, sesame oil, peanut oil 103 % of control | dose: 200.0 mg/kg/injection, schedule: Q04DX003 (sc), vehicle: olive oil, sesame oil, peanut oil 95 % of control | dose: 400.0 mg/kg/injection, schedule: Q01DX009 (sc), vehicle: olive oil, sesame oil, peanut oil 102 % of control | dose: 400.0 mg/kg/injection, schedule: Q04DX003 (sc), vehicle: olive oil, sesame oil, peanut oil 93 % of control

CCC#CC(=O)OCCCCCC
inactive: dose: 100.0 mg/kg/injection, schedule: Q04DX002 (ip), vehicle: saline 107 % of control | dose: 200.0 mg/kg/injection, schedule: Q04DX002 (ip), vehicle: saline 100 % of control | dose: 400.0 mg/kg/injection, schedule: Q04DX002 (ip), vehicle: saline 103 % of control
